# Measured values reported in publication PMC4559389, “Tumor Detection at 3 Tesla with an Activatable Cell Penetrating Peptide Dendrimer (ACPPD-Gd), a T1 Magnetic Resonance (MR) Molecular Imaging Agent” (PLoS ONE, 2015).
# Several values for one entry are separate records, joined by “and”; a condition that tells them apart may be missing. Identical values can stand only once. Entries after “also recorded” stand apart in the source; their conditions may differ.
# Legend:
# Format in all cases: in vivo, albino C57BL/6 mice
# Py8119 mammary tumor [1] = experiment: T1-weighted MR tumor enhancement at 3T in mice with mammary fat pad tumors
# Description: The University of California San Diego Institutional Animal Care and Use Committee (IACUC) approved this research under protocol S04011. All steps were ensured to minimize pain and suffering of all animals during the course of this experiment. Anesthesia during tumor inoculation and MR imaging was isoflurane/O2. All animals were given free access to food and water ad libitum during the entire study. Euthanasia involved CO2 asphyxiation followed by cervical dislocation. Each of the 4 inguinal nipples of 16 albino C57BL/6 (Harlan Labs) mice were randomized such that each mouse had 2 mammary fat pads inoculated with 10^4 Py8119 mammary tumor cells and the other 2 with an equal volume of saline. […]
# All mice were imaged on days 4, 9, and 14 after inoculation under isoflurane/O2 anesthesia. […] Optimal ACPPD-Gd dose and imaging time were previously determined. […]
# Tumor signal and size were quantified at each time point using region-of-interest (ROI) analysis with OsiriX software (Pixmeo, Geneva). […] Tumors <1mm^3 were not analyzed because of unreliable ROI placement and partial volume effects. A polygonal ROI was traced around the tumor on the fat-saturated T1-weighted axial sequence at its maximal dimension and the average signal and cross-sectional area recorded. […] Tumor volume was calculated using an ellipsoid function as 4/3*(area of tumor ROI)*(1/2)*(maximal orthogonal coronal diameter). […]
# Py8119 mammary tumor [2] = experiment: Blinded reader tumor detection on 3T MRI (ROC/AUC, inter-observer kappa); settings: for AUC (95%CI) of ROC curve for tumor presence, Reader 1 (experienced), all tumors (n = 107) / AUC (95%CI) of ROC curve for tumor presence, Reader 2 (trainee), all tumors (n = 107): 288 breasts, ACPPD-Gd 24 h post, gadobutrol 2–3 min post; for AUC (95%CI) of ROC curve for tumor presence, Reader 1 (experienced), tumors <5mm^3 (n = 58) / AUC (95%CI) of ROC curve for tumor presence, Reader 2 (trainee), tumors <5mm^3 (n = 58): obvious tumors (>5mm^3) removed
# Description: The acquired 72 studies (3 groups x 8 mice x 3 time points) with 4 pulsing sequences each were anonymized and presented at random to 2 observers blinded to contrast grouping, time since inoculation, and which 2 nipples were inoculated with tumor. Reader 1 is an MR expert with extensive experience in clinical and animal MR image interpretation (RFM) and Reader 2 is a 2nd-year radiology resident in training (ESO). Studies were reviewed independently and readers reported whether the breast tissue under each of the 4 nipples in each study was normal or contained tumor along with their confidence level as low, medium, or high. If a tumor was present they described the degree and pattern of tumor enhancement.
# Receiver operating characteristic (ROC) curves were constructed using 4 levels: normal, low, medium and high probability for tumor presence. There were 288 breasts evaluated (3 groups x 8 animals x 3 time-points x 4 breasts). […] Additional ROC curves were constructed for tumors <5mm^3 to assess the potential benefit of ACPPD-Gd in detecting small tumors. Interobserver agreement was assessed for all 288 breasts and within each of the 3 contrast groups using the kappa statistic. Area under the ROC curve (AUC) was calculated for the 3 contrast groups using the JROC web-based program.
# [3] = Post mortem tissue Gd content by ICP-MS; settings: ACPPD-Gd 24 h post, gadobutrol at equilibrium phase
# Protocol: Mice were sacrificed immediately after the 14-day MRI study and tumors, liver, kidneys, and muscle were harvested and immediately frozen at -20°C for later analysis. Tissue Gd content was measured using inductively coupled plasma-mass spectrometry (ICP-MS) on defrosted and weighted tissues. Less than 100mg samples of each tissue were placed in 900uL of nitric acid on a Gyromixer overnight at room temperature. The next day, 200μL of 30% hydrogen peroxide were added, and after 2 hours the samples were heated to 90–100°C for 2 hours. Tuning solution was then added to a 5mL total volume. Samples were then run in an Agilent Technologies 7700 Series ICP-MS to measure gadolinium content in parts-per-billion. Tissue Gd concentration in micromolar was calculated as (ppb of Gd/Gd molecular weight)*(total weight of solution measured/tissue wet weight).
smiles,measurement,setting,value
"O=C([O-])CN1CCN(CC(=O)[O-])CCN([C@H](CO)[C@H](O)CO)CCN(CC(=O)[O-])CC1.[Gd+3] (racemic) [gadobutrol, Gd-DO3A-butrol]",Pattern of tumor enhancement,Py8119 mammary tumor [1]; 3T axial fat-saturated T1w images,more apparent at the tumor periphery; also recorded: enhanced predominantly the tumor rim
same,"T1w tumor enhancement, small tumors (1-5mm^3)","Py8119 mammary tumor [1]; 3T, ACPPD-Gd 24 h after 0.036 mmol Gd/kg, gadobutrol 2–3 min after 0.1 mmol/kg, mean±SD, p = 0.03",19±18%
same,"AUC (95%CI) of ROC curve for tumor presence, Reader 1 (experienced), all tumors (n = 107)",Py8119 mammary tumor [2],0.91 and 0.92
same,"AUC (95%CI) of ROC curve for tumor presence, Reader 2 (trainee), all tumors (n = 107)",Py8119 mammary tumor [2],0.81
same,"AUC (95%CI) of ROC curve for tumor presence, Reader 1 (experienced), all tumors (n = 107)",Py8119 mammary tumor [2]; listed as Gadobutrol,"0.92 (0.86, 0.98)"
same,"AUC (95%CI) of ROC curve for tumor presence, Reader 2 (trainee), all tumors (n = 107)",Py8119 mammary tumor [2]; listed as Gadobutrol,"0.81 (0.73, 0.90)"
same,"AUC (95%CI) of ROC curve for tumor presence, Reader 1 (experienced), tumors <5mm^3 (n = 58)",Py8119 mammary tumor [2],0.86
same,"AUC (95%CI) of ROC curve for tumor presence, Reader 2 (trainee), tumors <5mm^3 (n = 58)",Py8119 mammary tumor [2],0.69
same,"AUC (95%CI) of ROC curve for tumor presence, Reader 1 (experienced), tumors <5mm^3 (n = 58)",Py8119 mammary tumor [2]; listed as Gadobutrol,"0.86 (0.75, 0.96)"
same,"AUC (95%CI) of ROC curve for tumor presence, Reader 2 (trainee), tumors <5mm^3 (n = 58)",Py8119 mammary tumor [2]; listed as Gadobutrol,"0.69 (0.57, 0.81)"
same,Gd biodistribution: organ of dominant accumulation,"[3]; ICP-MS of tumors, liver, kidneys, muscle",the majority of Gd was in the kidneys
same,Tumor to muscle Gd concentration ratio,"[3]; ICP-MS, 14 days after inoculation, mean±SD",2.7 ± 1.0
